This note sets out measurements from ChEMBL document CHEMBL3871291, “Anthraquinones from Morinda longissima and their insulin mimetic activities via AMP-activated protein kinase (AMPK) activation” (Bioorg Med Chem Lett, 2017).

Data set [1] concerns C2C12. Description: Induction of AMPK alpha phosphorylation at Thr172 residue in mouse C2C12 cells at 10 uM after 2 hrs by Western blot analysis. The format is cell-based. (Immunoblotting shows a protein as a band on a membrane.)
For data set [2], the species on record is Mus musculus. Description: Activation of AMPK in mouse 3T3L1 adipocytes assessed as increase in 2-NBDG uptake at 10 uM after 90 mins by fluorescence assay. The data set is classed as cell-based.
The species named for data set [3] is Mus musculus. Description: Activation of AMPK in mouse 3T3L1 adipocytes assessed as increase in 2-NBDG uptake at 10 uM after 90 mins by fluorescence microscopy. The format is cell-based.
Data set [4] can be described thus: Effect on total AMPK expression in mouse C2C12 cells at 10 uM after 2 hrs by Western blot analysis. Particulars: c2c12, 2 h. The format is ADME, cell-based.
Data set [5] relates to C2C12. In words: Activation of AMPK in mouse C2C12 cells assessed as increase in ACC phosphorylation at Ser79 residues at 1 mM after 1 hr by Western blot analysis. The data set is classed as cell-based.
Data set [6] is filed under the species Mus musculus. Description: Cytotoxicity against mouse 3T3L1 adipocytes assessed as decrease in cell viability at 10 uM after 2 to 24 hrs by MTT assay. The format is toxicity. Particulars: 3t3-l1, 10 µM. On the technique in general: Tetrazolium assays rely on reduction of a dye to a coloured formazan, in cell work by metabolically active cells.
Data set [7] has as its system C2C12. In words: Activation of AMPK in mouse C2C12 cells assessed as increase in ACC phosphorylation at Ser79 residues at 10 uM after 2 hrs by Western blot analysis. The format is cell-based.
For data set [8], the species on record is Mus musculus. In words: Cytotoxicity against mouse C2C12 cells assessed as decrease in cell viability at 10 uM after 2 to 24 hrs by MTT assay. The format is toxicity, cell-based. Particulars: c2c12, 10 µM.

Active and inactive are the calls of the source. The rule behind the calls is not given here.

In the case of `Cc1ccc2c(c1)C(=O)c1ccccc1C2=O` [TECTOQUINONE], the outcome in the data set with C2C12 [1], in the data set listed under Mus musculus [2] and in the data set filed under Mus musculus [3] was Active. Also, in data set [4], the Activity entry was “Non-Toxic”.

Take `COc1cc2c(cc1C)C(=O)c1ccccc1C2=O`: the result in the data set listed under Mus musculus [2] was Active.

`NC(=O)c1ncn([C@@H]2O[C@H](CO)[C@@H](O)[C@H]2O)c1N`: the outcome in the data set on C2C12 [5] was Active.

For `COCc1c(OC)cc2c(c1OC)C(=O)c1ccccc1C2=O`, in the data set filed under Mus musculus [2], the outcome was Active.

With `COc1c(O)c(O)cc2c1C(=O)c1ccccc1C2=O`, the result in the data set filed under Mus musculus [2] was Active.

`COc1c(C)c(O)cc2c1C(=O)c1ccccc1C2=O`: the outcome in the data set filed under Mus musculus [2] was Active.

`COc1c2c(cc3c1C(=O)c1ccccc1C3=O)OC(C)(C)OC2`: the result with C2C12 [1], in the data set listed under Mus musculus [2], in the data set with C2C12 [7] and in the data set listed under Mus musculus [3] was Active. Besides, the Activity entry (in the data set listed under Mus musculus [6]; in the data set filed under Mus musculus [8]; in data set [4]) was “Non-Toxic” each time.

Take `CCCCOCc1c(O)cc2c(c1O)C(=O)c1ccccc1C2=O`: the outcome in the data set listed under Mus musculus [2] was Active.

Consider `Cc1cc2c(cc1O)C(=O)c1ccccc1C2=O`, for which the result in the data set listed under Mus musculus [2] was Active.

With `COc1cc2c(c(O)c1COCCC(C)C)C(=O)c1ccccc1C2=O`, the outcome in the data set on C2C12 [1], in the data set filed under Mus musculus [2], in the data set on C2C12 [7] and in the data set filed under Mus musculus [3] was Active. Moreover, the Activity entry (in the data set listed under Mus musculus [6]; in the data set listed under Mus musculus [8]; in data set [4]) was “Non-Toxic” throughout.

As for `COCc1c(O)cc2c(c1OC)C(=O)c1ccccc1C2=O`, the outcome in the data set listed under Mus musculus [2] was Active.
